Like-named read-outs stand apart in the source and are kept apart here.
Columns and labels:
[1] = tested on: Aβ40 levels in APOE4-TR mouse brain; experiment: Acute PK/PD dose-response study in APOE4-TR mice: Aβ40 in forebrain (MSD assay); type: in vivo; conditions: for Mini AUEC (brain Aβ40): 4 h and 24 h; for Aβ40 reduction, range over doses: 3, 10 and 30 μmol/kg
Protocol: Male and female transgenic homozygous APOE4-TR (B6. 129P2-Apoe^tm3(APOE*4)Mae N8, Taconic, Model 001549, 3-5 months old, n=48) were obtained from Taconic.
Compound 1 was formulated as a suspension. Vehicle or compound was given by oral administration in a volume of 10 ml/kg once. Vehicle: 0.1% Tween80 in 0.5% Methylcellulose in water. […]
Frozen mouse forebrains were weighed and homogenized in 9 volumes (w/v) of ice-cold TBS-Complete (20 mM Tris-HCl pH 7.4, 137 mM NaCl, 1× Complete [Protease Inhibitor Cocktail Tablets: 1 836 145, Roche Diagnostics GmbH, Penzberg, Germany]) by sonication (90% duty cycle, output control 5, 40-55 pulses, [Sonifier 450, Branson]). After homogenization several 50 μl aliquots were prepared for analysis and were stored at −80° C.
Endogenous Aβ40 in mice was determined with the Meso Scale Discovery (MSD) 96-well MULTI-ARRAY human/rodent (4G8) Aβ40 Ultrasensitive Assay (#K110FTE-3, Meso Scale Discovery, Gaithersburg, USA). The assay was performed according to the manufacturer's instructions except for the calibration curve and the sample preparations. TritonX-100 (TX-100) soluble Aβ40 was extracted from forebrain with 1% TX-100 using a 50 μl aliquot of each 1:10 forebrain homogenate, mixed with 50 μl 2% TX-100 in TBS complete (20 mM Tris-HCl pH 7.4, 137 mM NaCl, 1× Complete [Protease Inhibitor Cocktail Tablets: 1 836 145, Roche Diagnostics GmbH, Penzberg Germany]) to reach a final concentration of 1% TX-100 and a 1:20 forebrain dilution. The samples were incubated for 15 min on ice and vortexed every 5 min. The samples were ultra-centrifuged (100000×g, 4° C., 15 min) and 50 μl of the clear supernatants were transferred to fresh tubes. For the Aβ40 assay the supernatants were further diluted 1:5 in 3% Blocker A solution (from kit) to a final forebrain dilution of 1:100 and applied to the plate.
The calibration curve was prepared in a corresponding dilution of 1% Blocker A solution spiked with synthetic Aβ1-40 peptide (1.56-100 pg/ml) except for non-transgenic mouse brain samples: In this case, the calibration curve was prepared in a correspondingly diluted APP knockout mouse forebrain spiked with synthetic Aβ1-40 peptide (1.56-100 pg/ml). For all samples and standards 25 μl were applied per well. For each determination duplicate wells were done. The mean values from the duplicate wells were used for calculations.

[2] = both, APOE4-TR, mouse, in vivo
Protocol: Vehicle or compound was given by oral administration in a volume of 10 ml/kg once. Vehicle: 0.1% Tween80 in 0.5% Methylcellulose in water.
The right brain was fixed in 4% paraformaldehyde, washed in PBS and then embedded in paraffin for possible future histological analyses.

[3] = tested on: APP23 mice; experiment: 13-week oral safety study in aged APP23 mice: MRI of microhaemorrhagic lesions; type: in vivo, mouse; conditions: aged female APP23 mice
Protocol: The APP23 mouse strain was chosen because of the existence of microhaemorrhages in aged animals. Females were chosen because of having a much higher overall Aβ load, a higher Aβ40/Aβ42 ratio and thus more pronounced microhaemorrhages.
β1 antibody administration: intraperitoneal, once weekly. Dosage volume: 0.15 mL/mouse (maximum 10 mL/kg)
Animal species and strain: Mouse; transgenic APP23 (B6.D2-Tg(Thy1App)23/1Sdz)
Sex: Females (females have a much higher overall Aβ load, a higher Aβ40/Aβ42 ratio and thus more pronounced microhaemorrhages)
Age: Approximately 17-18 months (at start of dosing)
For MRI investigations, mice were anesthetized with 1.5% isoflurane (Abbott, Cham, Switzerland) in a mixture of oxygen/N2O (2:1) administered via a face mask and placed in a Plexiglas cradle. […] Respiration was monitored throughout the acquisitions. […]
Acquisition and analysis of the MRI data were performed by a blinded investigator. Sites in the cortex and thalamus presenting signal attenuation with a minimum diameter of 70 μm (lesions) were analyzed throughout the whole brain. To ensure that the same site (lesion) was not counted multiple times, its presence was carefully controlled over several consecutive slices from the 3D data set. The total volume of the lesions was assessed using ImgTool, an IDL (Interactive Data Language Research Systems, Boulder, Colo., USA) based software. […]

[4] = tested on: APP23 mice; experiment: 13-week oral safety study in aged APP23 mice: post-mortem macroscopic and brain microscopic examination (H&E, Perls' Prussian blue); type: in vivo, mouse
Text: Sections of brain were collected at necropsy from all scheduled animals. […] Rest of the brain was fixed in 10% neutral-buffered formalin.
Four brain sections were processed and stained with hematoxylin and eosin (H&E) and Perls' Prussian blue for hemosiderin deposits, levels 2, 3, 4, as described in Bolon B et al., 2013, and one additional slide at hypothalamus level (level 2′).
Procedure for brain collection: Cerebellum was separated from cerebrum. Remaining cerebrum (from the anterior to level 5) was transferred into formalin for pathology.
Brain sections stained with haematoxylin and eosin and with Perls' Prussian blue, were examined under a light microscope. The distribution, size and staining intensity of hemosiderin deposits in Perls' Prussian blue-stained sections were assessed based on the grading scheme in Table 37.

[5] = aged APP23 mice, brain, H&E, after 3 months treatment
[6] = aged APP23 mice, brain, H&E, after 3 months treatment, Grade 1 = minimal
[7] = aged APP23 mice, brain, H&E, after 3 months treatment, grade 2 = slight
[8] = aged APP23 mice, brain, after 3 months treatment
[9] = aged APP23 mice, brain, after 3 months treatment, Grade 1 = minimal
[10] = aged APP23 mice, brain, after 3 months treatment, grade 2 = slight

SMILES: C[C@@]1(c2nc(NC(=O)c3ncc(C(F)(F)F)cc3Cl)ccc2F)CO[C@@](C)(C(F)(F)F)C(N)=N1 [Compound 1, N-(6-((3R,6R)-5-amino-3,6-dimethyl-6-(trifluoromethyl)-3,6-dihydro-2H-1,4-oxazin-3-yl)-5-fluoropyridin-2-yl)-3-chloro-5-(trifluoromethyl)picolinamide]
- % reduction vs vehicle (brain Aβ40) ([1]; 3 μmol/kg acute, 4 h): 43%
- Average Aβ40 brain ± SD ([1]; 3 μmol/kg acute, 4 h): 0.114 ± 0.024 pmol/g
- Mini AUEC (brain Aβ40) ([1]; 3 μmol/kg acute): 32%
- % reduction vs vehicle (brain Aβ40) ([1]; 3 μmol/kg acute, 24 h): 20%
- Average Aβ40 brain ± SD ([1]; 3 μmol/kg acute, 24 h): 0.160 ± 0.033 pmol/g
- % reduction vs vehicle (brain Aβ40) ([1]; 10 μmol/kg acute, 4 h): 63%
- Average Aβ40 brain ± SD ([1]; 10 μmol/kg acute, 4 h): 0.074 ± 0.014 pmol/g
- Mini AUEC (brain Aβ40) ([1]; 10 μmol/kg acute): 47%
- % reduction vs vehicle (brain Aβ40) ([1]; 10 μmol/kg acute, 24 h): 31%
- Average Aβ40 brain ± SD ([1]; 10 μmol/kg acute, 24 h): 0.139 ± 0.041 pmol/g
- % reduction vs vehicle (brain Aβ40) ([1]; 30 μmol/kg acute, 4 h): 77%
- Average Aβ40 brain ± SD ([1]; 30 μmol/kg acute, 4 h): 0.046 ± 0.006 pmol/g
- Mini AUEC (brain Aβ40) ([1]; 30 μmol/kg acute): 72%
- % reduction vs vehicle (brain Aβ40) ([1]; 30 μmol/kg acute, 24 h): 66%
- Average Aβ40 brain ± SD ([1]; 30 μmol/kg acute, 24 h): 0.068 ± 0.021 pmol/g
- Aβ40 reduction, range over doses ([1]; 4 h): 43-77%
- Aβ40 reduction, range over doses ([1]; 24 h): 20-66%
- Emax ([1]; Mus musculus, 30 μmol/kg acute, read-out: maximal effect on Aβ reduction in the brain): > 70%
- exposure reduction 4 h/24 h [2]: 2-5 fold
- AUCbrain (AUC0-24 h) ([2]; 3 umol/kg): 8.67 µmol·h/kg
- AUCbrain (AUC0-24 h) ([2]; 10 umol/kg): 15.83 µmol·h/kg
- AUCbrain (AUC0-24 h) ([2]; 30 umol/kg): 49.82 µmol·h/kg
- total lesion volume detected by MRI ([3]; 1, 2 and 3 months of treatment): did not exacerbate lesion volumes
- lesion numbers (mean±SEM) by MRI ([3]; month 3): 11.5±2.0
- Blood vessel inflammation ([4]; 3 months treatment): least marked
- mineralisation of plaques in the thalamus ([4]; 3 months treatment): no indication of an effect
- thrombus formation in affected blood vessels or small areas of previous necrosis (infarct) ([4]; 3 months treatment): not
- extent of plaque formation ([4]; 3 months treatment, compared to the other groups): appeared reduced in some
- Amyloid plaques, % affected [4, 5]: 100%
- Haemorrhage, % affected [4, 5]: 7%
- Inflammation, vessel, % affected [4, 5]: 27%
- Haemorrhage, number of animals with Grade 1 [4, 6]: 1
- Inflammation, vessel, number of animals with Grade 1 [4, 6]: 4
- Haemorrhage, number of animals with Grade 2 [4, 7]: 0
- Inflammation, vessel, number of animals with Grade 2 [4, 7]: 0
- Amyloid plaques, number of animals with Grade 2 ([4]; aged APP23 mice, brain, H&E, after 3 months treatment, grade 2 = slight (notably fewer plaques than controls)): 4
- Amyloid plaques, number of animals with Grade 3 ([4]; aged APP23 mice, brain, H&E, after 3 months treatment, grade 3 = moderate (extent in controls)): 11
- Haemosiderin (Perls' staining), % affected [4, 8]: 47%
- Infarct, % affected [4, 8]: 0%
- Mineralisation, % affected [4, 8]: 13%
- Thrombus, % affected [4, 8]: 0%
- Haemosiderin (Perls' staining), number of animals with Grade 1 [4, 9]: 7
- Infarct, number of animals with Grade 1 [4, 9]: 0
- Mineralisation, number of animals with Grade 1 [4, 9]: 2
- Thrombus, number of animals with Grade 1 [4, 9]: 0
- Haemosiderin (Perls' staining), number of animals with Grade 2 [4, 10]: 0
- Mineralisation, number of animals with Grade 2 [4, 10]: 0
- Thrombus, number of animals with Grade 2 [4, 10]: 0
- Haemosiderin (Perls' staining), number of animals with Grade 3 ([4]; aged APP23 mice, brain, after 3 months treatment, grade 3 = moderate): 0
